Data as given in US12384771B2, “Pleuromutilin derivative containing thiazole-pyridine benzyl quaternary ammonium salt side chain and preparation method and use thereof” (SHAANXI UNIVERSITY OF SCIENCE AND TECHNOLOGY, priority 2022, dated 2025).
Values after ≈ are worked out from the molar mass of the structure shown.

How the values were obtained:
Type in all cases: cell-based
[1] = tested on: Escherichia coli ATCC 25922; experiment: MIC, microbroth dilution, standard strains; details: ATCC25922, ATCC 25922, read-out: Minimum inhibitory concentration
Protocol: (§1) The minimum inhibitory concentration (MIC) of the pleuromutilin derivative containing thiazole-pyridine benzyl quaternary ammonium salt side chain was tested with moxifloxacin as a positive control (purchased from Shanghai Macklin Biochemical Technology Co., Ltd.) using a microbroth dilution method.
(§2) Standard strains include gram-positive bacteria: Staphylococcus epidermidis ATCC 12228, Staphylococcus aureus ATCC 29213, ATCC 25923 and methicillin-resistant Staphylococcus aureus ATCC 33591; gram-negative bacteria: Salmonella ATCC 14028, Acinetobacter baumannii ATCC 19606, Escherichia coli ATCC 25922 and CMCC 44103, all the strains were purchased from the American Type Culture Collection.

[2] = tested on: methicillin-resistant Staphylococcus aureus ATCC 33591; experiment: MIC, microbroth dilution, standard strains; details: ATCC33591, ATCC 33591, read-out: Minimum inhibitory concentration
Protocol: as §1, §2

[3] = tested on: Escherichia coli CMCC 44103; experiment: MIC, microbroth dilution, standard strains; details: CMCC44103, CMCC 44103, read-out: Minimum inhibitory concentration
Protocol: as §1, §2

Salmonella ATCC 14028 = experiment: MIC, microbroth dilution, standard strains; details: ATCC14028, ATCC 14028, read-out: Minimum inhibitory concentration
Protocol: as §1, §2

[4] = tested on: Staphylococcus epidermidis ATCC 12228; experiment: MIC, microbroth dilution, standard strains; details: ATCC12228, ATCC 12228, read-out: Minimum inhibitory concentration
Protocol: as §1, §2

[5] = tested on: Staphylococcus aureus ATCC 29213; experiment: MIC, microbroth dilution, standard strains; details: ATCC29213, ATCC 29213, read-out: Minimum inhibitory concentration
Protocol: as §1, §2

[6] = tested on: Acinetobacter baumannii ATCC 19606; experiment: MIC, microbroth dilution, standard strains; details: ATCC19606, ATCC 19606, read-out: Minimum inhibitory concentration
Protocol: as §1, §2

[7] = tested on: Staphylococcus aureus ATCC 25923; experiment: MIC, microbroth dilution, standard strains; details: ATCC25923, ATCC 25923, read-out: Minimum inhibitory concentration
Protocol: as §1, §2

[8] = tested on: Mycoplasma hyopneumoniae standard strain J strain (Mhp-J; NCTC 10110); experiment: Anti-mycoplasma activity assay, MIC; details: Mesomycoplasma hyopneumoniae, NCTC10110
Protocol: (§3) The minimum inhibitory concentration of the pleuromutilin derivative containing thiazole-pyridine benzyl quaternary ammonium salt side chain against different mycoplasmas was tested with tiamulin as (purchased from Shanghai Yuanye Bio-Technology Co., Ltd) a positive control using a microbroth dilution method, and the antibacterial effect of the compound against different mycoplasmas was evaluated.
(§4) Experimental strains include Mycoplasma hyopneumoniae standard strain J strain (Mhp-J; NCTC 10110), Mycoplasma hyopneumoniae clinical isolate LH strain (Mhp-LH), Mycoplasma hyorhini standard strain BTS-7 strain (Mhr-BTS-7; NCTC 10130), Mycoplasma gallisepticum R strain (MG-R) and Mycoplasma synoviae WVU1853 strain (MS-WVU1853; NCTC 10124) (purchased from National Collection of Type Cultures, United Kingdom).
(§5) The specific operation steps are as follows: • (1) preparation of KM2 medium: 38.9 g of KM2 medium (purchased from Guangdong Huankai Microbial Sci. & Tech. Co., Ltd.) was weighed, added to 800 mL of distilled water, boiled and dissolved, and autoclaved at 115° C. for 20 min for later use. • (2) preparation of bacterial liquid stock: 0.5 mL of each of Mycoplasma hyopneumoniae (Mhp), Mycoplasma hyorhina (Mhr), Mycoplasma gallisepticum (MG) and Mycoplasma synoviae (MS) was taken and transferred to 4.5 mL of KM2 liquid medium, and when the colour of the medium turned yellow, each of the bacteria was sub-packaged at 0.5 mL per tube, and stored as the bacterial liquid at −70° C. • (3) determination of bacterial liquid titre (colour change unit, CCU): 96-well plate method was used to measure the bacterial liquid titre. The preserved bacterial liquid stock was taken from −70° C., melt and equilibrated to room temperature. 0.18 mL of KM2 medium was added to each well of the middle 4 rows of the 96-well plate (that is, 4 parallels), 0.02 mL of the bacterial liquid stock was taken and added to the wells of the first column, respectively, and subjected to 10-fold dilution until 10^−11. A negative control containing only KM2 medium was set (column 12). The plate was sealed and put into an incubator at 37° C., and the results were observed day by day. The highest dilution at which the colour of the medium can change was the CCU/mL of the strain. • (4) determination of MIC: the minimum inhibitory concentration of the compound against mycoplasmas was determined by a microbroth dilution method. Each drug to be tested was prepared as a stock solution with a concentration of 2560 μg/mL, and each drug stock solution was 2-fold diluted with KM2 liquid medium, and the test concentration range was 0.015-128 μg/mL (large concentration gradient) and 0.000004-0.06 μg/mL (small concentration gradient). An appropriate amount of seed bacterial liquid was taken and diluted to 10^4 CCU/mL serially according to its titre. Drugs of various dilutions were added sequentially to the 96-well plate, and then an equal amount of diluted bacterial liquid was added. 200 μL of diluted mycoplasma liquid was set as a positive control, 200 μL of KM2 liquid culture medium was set as a negative control, and a solvent control group (10 μL of drug solvent+190 μL of mycoplasma liquid) was also set. Three parallels were set for each experiment. After all the culture plates were sealed, they were allowed to culture at 37° C. and observed daily, and the final MIC values were recorded. (See FIG. 22 for the MIC determination results of the representative compound 7 against 5 mycoplasma strains)

[9] = tested on: Mycoplasma hyorhini standard strain BTS-7 strain (Mhr-BTS-7; NCTC 10130); experiment: Anti-mycoplasma activity assay, MIC; details: NCTC10130
Protocol: as §3, §4, §5

[10] = tested on: Mycoplasma gallisepticum R strain (MG-R); experiment: Anti-mycoplasma activity assay, MIC; details: Mycoplasmoides gallisepticum
Protocol: as §3, §4, §5

[11] = tested on: Mycoplasma hyopneumoniae clinical isolate LH strain (Mhp-LH); experiment: Anti-mycoplasma activity assay, MIC; details: Mesomycoplasma hyopneumoniae
Protocol: as §3, §4, §5

[12] = tested on: Mycoplasma synoviae WVU1853 strain (MS-WVU1853; NCTC 10124); experiment: Anti-mycoplasma activity assay, MIC; details: Mycoplasmopsis synoviae, NCTC10124
Protocol: as §3, §4, §5

Structure (SMILES): C=C[C@]1(C)C[C@@H](OC(=O)CSCCN(CC)CC)[C@]2(C)[C@H](C)CC[C@]3(CCC(=O)[C@H]32)[C@@H](C)[C@@H]1O [Tiamulin, tiamulin, reference compound]
- MIC [1]: 128 µg/mL (≈ 259 µM)
- MIC [2]: 128 µg/mL (≈ 259 µM)
- MIC [3]: 64 µg/mL (≈ 130 µM)
- MIC (Salmonella ATCC 14028): 128 µg/mL (≈ 259 µM)
- MIC [4]: 16 µg/mL (≈ 32.4 µM)
- MIC [5]: > 128 µg/mL
- MIC [6]: 64 µg/mL (≈ 130 µM)
- MIC [7]: 64 µg/mL (≈ 130 µM)
- MIC [8]: 0.03 µg/mL (≈ 0.0608 µM)
- MIC [9]: 0.03 µg/mL (≈ 0.0608 µM)
- MIC [10]: 0.125 µg/mL (≈ 0.253 µM)
- MIC [11]: 0.015 µg/mL (≈ 0.0304 µM)
- MIC [12]: 2 µg/mL (≈ 4.05 µM)
